Patent publication US20220332720A1, “BICYCLIC AGONISTS OF STIMULATOR OF INTERFERON GENES STING” (The Scripps Research Institute, priority 2019, published 2022)
pEC50: −log10 of the molar value.

tested on: THP-1 Lucia ISG cells; test: ISG-LUC activation assay (ISRE-luciferase assay); assay type: cell-based; settings: Homo sapiens, THP1-Lucia ISG, 24 h, read-out: ISG-LUC activation assay score
Description: We have established a robust platform for identifying non-nucleotide small molecule STING agonists. his has been established using a primary assay involving a human THP-1 cell line carrying an IRF-inducible reporter with 5 copies of the IFN signaling response element. Counter screens, involving alternative reporter constructs, rodent cell-based assays, as well as cGAS and STING knock-out cell lines, are used to eliminate luciferase artifacts and ensure human-rodent cross species reactivity, as well as pathway selectivity. Biochemical assays, involving cGAS enzymatic activity and STING protein binding assays, are used to identify the specific target of identified hits.
Tissue culture. Wild-type (cat. no. thpl-isg) and STING KO (cat. no. thpd-kostg) THP-1-Lucia ISG cells were purchased from Invivogen and maintained in growth media consisting of RPMI 1640, 2mM L-glutamine, […], 10% heat-inactivated fetal bovine serum (FBS), 1,000 units/ml penicillin, 1,000 μg/ml streptomycin, 0.25 μg/ml Amphotericin B, and 100 μg/ml zeocin unless otherwise stated.
ISRE-luciferase assay. THP-1 Lucia ISG cells were resuspended in low-serum growth media (2% FBS) at a density of 5×10^5 cells/ml and treated with test article or vehicle (DMSO). 50 μL of cells were seeded into each well of a 384-well white greiner plates and incubated for 24 hours. To evaluate expression of the luciferase reporter, 30 μl of Quanti-luc (Invivogen) detection reagent was added to each well and luminescence was read using an Envision plate reader (Perkin Elmer) set with an integration time of 0.1 seconds.

| Compound | pEC50 |
| --- | --- |
| C#Cc1cc(NC(=O)c2cc(N)c3nnnn3n2)c(C(=O)O)cc1F [Compound 1, lithium 2-(8-aminotetrazolo[1,5-b]pyridazine-6-carboxamido)-4-ethynyl-5-fluorobenzoate] | > 5.52 |

same assay, conditions: Homo sapiens, THP1-Lucia ISG; THP-1 Lucia ISG reporter cells, 24 hours; score based upon potency and efficacy relative to reference compound; read-out: ISG-LUC activation assay score

| Compound | pEC50 |
| --- | --- |
| C#Cc1ccc(NC(=O)c2cc(N)c3nnnn3n2)c(C(=O)O)c1 [Compound 28] | < 4.70 |
| O=C(Nc1cc(F)c(F)cc1C(=O)O)c1ccc2nnnn2n1 [Compound 22] | < 6.00 |
| COc1cc(NC(=O)c2cc(N)c3nnnn3n2)c(C(=O)OC(C)C)cc1F [Compound 47] | < 6.00 |
| C#Cc1cc(NC(=O)c2ccc3c(C#N)nnn3n2)c(C(=O)O)cc1F [Compound 13] | < 6.00 |
| C#Cc1cc(NC(=O)c2cc(N)n3ncnc3n2)c(C(=O)O)cc1F [Compound 18] | < 6.00 |
| COc1cc(NC(=O)c2ccc3nnnn3n2)c(C(=O)O)cc1F [Compound 7] | > 5.52 |
| COC(=O)c1cc(Cl)c(Cl)cc1NC(=O)c1ccn2c(C#N)cnc2n1 [Compound 3, methyl 4,5-dichloro-2-(3-cyanoimidazo[1,2-a]pyrimidine-7-carboxamido)benzoate] | > 6.05 |
| C#Cc1cc(NC(=O)c2cc(N)nn3nnnc23)c(C(=O)OC)cc1F [Compound 19] | > 6.05 |
| COC(=O)c1sc(C)cc1NC(=O)c1cc(N)c2nnnn2n1 [Compound 38] | < 6.00 |
| C#Cc1cc(NC(=O)c2ccc3c(C#N)nnn3n2)c(C(=O)OC)cc1F [Compound 52] | < 6.00 |
| Cc1cc(NC(=O)c2cc(N)c3nnnn3n2)c(C(=O)O)cc1F [Compound 43] | < 6.00 |
| C=C(F)c1ccc(C(=O)OC)c(NC(=O)c2cc(N)n3ncnc3n2)c1 [Compound 30] | > 6.05 |
| C#Cc1cc2nc(-c3cc(N)c4nnnn4n3)oc(=O)c2cc1F [Compound 2, 2(8-aminotetrazolo[1,5-b]pyridazin-6-yl)-7-ethynyl-6-fluoro-4H-benzo[d][1,3]oxazin-4-one] | > 6.05 |
| N#Cc1cc(NC(=O)c2cc(N)c3nnnn3n2)c(C(=O)O)cc1F [Compound 41] | < 6.00 |
| COC(=O)c1cc(Cl)c(Cl)cc1NC(=O)c1nn2nnnc2cc1N [Compound 65] | > 6.05 |
| C=C(F)c1ccc(C(=O)O)c(NC(=O)c2cc(N)c3nnnn3n2)c1 [Compound 66] | > 6.05 |
| O=C(Nc1cc(F)c(F)cc1C(=O)O)c1cc2[nH]cnc2cn1 [Compound 78] | < 6.00 |
| C/C=C/c1cc(NC(=O)c2cc(N)c3nnnn3n2)c(C(=O)OC)cc1F [Compound 35] | > 6.05 |
| COc1cc(NC(=O)c2nc3ccc(C(N)=O)nc3[nH]2)c(C(=O)O)cc1F [Compound 87] | < 4.70 |
| COC(=O)c1cc(Cl)c(Cl)cc1NC(=O)c1nc2nc(O)ccn2n1 [Compound 77] | < 6.00 |
| COc1cc(NC(=O)c2cc(N)c3nnnn3n2)c(C(=O)O)cc1Cl [Compound 84] | < 6.00 |
| COC(=O)c1cc(F)c(OC)cc1NC(=O)c1ccc2cnnn2n1 [Compound 10] | > 6.05 |
| COc1cc2nc(-c3ccc4nnnn4n3)oc(=O)c2cc1F [Compound 48] | > 6.05 |
| Nc1cc(C(=O)Nc2cc(Cl)c(F)cc2C(=O)O)nn2nnnc12 [Compound 83] | > 6.05 |
| COC(=O)c1cc(C#N)c(Cl)cc1NC(=O)c1cc2[nH]ncc2cn1 [Compound 90] | < 6.00 |
| C=Cc1ccc(C(=O)OC)c(NC(=O)c2cc(N)c3nnnn3n2)c1 [Compound 64] | > 6.05 |
